Experimental data as given in patent US7030110B2, “Cyclic oxyguanidine pyrazinones as protease inhibitors” (Ortho-McNeil Pharmaceuticals, Inc., priority 2000, dated 2006).
Counter-ions that a name gives are not always drawn.

Target: T1, human α-thrombin (Homo sapiens, UniProt P00734)
T1 construct: Human α-thrombin, human factor Xa and human plasmin were obtained from Enzyme Research Laboratories; purchased Enzyme Research Laboratories (South Bend, Indiana)
Assay: In vitro inhibition of purified thrombin, Ki determination (p-nitroanilide substrate hydrolysis)
Assay type: biochemical
Settings: purified human α-thrombin 0.5 nM; substrate N-succinyl-Ala-Ala-Pro-Arg-p-nitroanilide; 50 mM HEPES, 200 mM NaCl, pH 7.5; 37° C.
Description: Reagents: All buffer salts were obtained from Sigma Chemical Company (St. Louis, Mo.), and were of the highest purity available. The enzyme substrates, N-benzoyl-Phe-Val-Arg-p-nitroanilide (Sigma B7632), N-benzoyl-Ile-Glu-Gly-Arg-p-nitroanilide hydrochloride (Sigma B2291), N-p-Tosyl-Gly-Pro-Lys-p-nitroanilide (Sigma T6140), N-succinyl-Ala-Ala-Pro-Phe-p-nitroanilide (Sigma S7388) and N-CBZ-Val-Gly-Arg-p-nitroanilide (Sigma C7271) were obtained from Sigma. N-succinyl-Ala-Ala-Pro-Arg-p-nitroanilide (BACHEM L-1720) and N-succinyl-Ala-Ala-Pro-Val-p-nitroanilide (BACHEM L-1770) were obtained from BACHEM (King of Prussia, Pa.). […]
Ki Determinations: All assays are based on the ability of the test compound to inhibit the enzyme catalyzed hydrolysis of a peptide p-nitroanilide substrate. […] In general, substrate concentrations are lower than the experimentally determined value for Km. […]
In a typical K1 determination, into each well of a 96 well plate is pipetted […] of substrate solution, […] of test compound solution, and the plate allowed to thermally equilibrate at 37° C. in a Molecular Devices plate reader for >15 minutes. Reactions were initiated by the addition of a […] aliquot of enzyme and the absorbance increase at 405 nm is recorded for 15 minutes. […] The data are fit to a linear regression, and the value of the slope of the line calculated. […]

| Ki [nM] | Compound |
| --- | --- |
| 5 | Cc1cnc(NCC(F)(F)c2ccccc2)c(=O)n1CC(=O)NCC1CNC(=N)NO1 (centres unmarked) [Example 2, 2-[3-(2,2-Difluoro-2-phenylethylamino)-6-methyl-2-oxo-2H-pyrazin-1-yl]-N-(3-imino-[1,2,4]oxadiazinan-6-ylmethyl)-acetamide Trifluoroacetate] |
| 0.6 to 1.3 | Cc1ccc(CCNc2ncc(C)n(CC(=O)NC3CCN(C(=N)N)OC3)c2=O)cc1 (centres unmarked) [Example 1, N-(2-Carbamimidoyl-[1,2]oxazinan-5-yl)-2-[6-methyl-2-oxo-3-(2-p-tolylethylamino)-2H-pyrazin-1-yl]-acetamide trifluoroacetate] |
